Biological target: full-length recombinant human FYN A (Homo sapiens (Human), UniProt P06241)
Assay: ADP-Glo Kinase Assay of FYN kinase inhibition
Assay type: biochemical
Conditions: primary screen, initial compounds
How it was run: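 GST-tagged full-length FYN A (baculovirus, Sf9) at 3 pg preincubated 30 min RT with compound (10-point 3-fold series from 10 μM) in Tris pH 7.5/MgCl2 buffer. 12-mer tyrosine peptide plus 12.5 pmol ATP added, 90 min RT; ADP measured by ADP-Glo luminescence, IC50 from dose-response.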

Chain of full-length recombinant human FYN A (P06241 whole entry): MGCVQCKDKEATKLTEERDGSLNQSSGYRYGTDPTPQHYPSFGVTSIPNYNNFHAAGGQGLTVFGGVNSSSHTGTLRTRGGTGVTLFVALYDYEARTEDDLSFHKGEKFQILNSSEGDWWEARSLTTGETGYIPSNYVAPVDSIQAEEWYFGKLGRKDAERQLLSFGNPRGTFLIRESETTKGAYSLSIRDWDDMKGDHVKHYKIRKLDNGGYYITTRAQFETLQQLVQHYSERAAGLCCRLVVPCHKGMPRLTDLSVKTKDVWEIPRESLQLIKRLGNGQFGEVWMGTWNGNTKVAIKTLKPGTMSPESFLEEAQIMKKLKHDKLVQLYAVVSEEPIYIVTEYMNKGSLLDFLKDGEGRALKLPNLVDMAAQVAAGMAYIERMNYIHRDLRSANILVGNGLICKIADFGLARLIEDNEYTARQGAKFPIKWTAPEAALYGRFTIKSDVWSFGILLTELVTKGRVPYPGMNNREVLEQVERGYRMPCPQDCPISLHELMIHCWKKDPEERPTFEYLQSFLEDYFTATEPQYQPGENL

Row | Structure (SMILES) | IC50 [µM]
1 | CC(=O)c1cccc(-c2cnc3ccc(Cc4ccccc4)nn23)c1 [Compound 485, 1-[3-(6-benzylimidazo [1,2-b]pyridazin-3-yl)phenyl] ethanone] | 3.97
2 | Nc1ccc(-c2cnc3ccc(Cc4ccccc4)nn23)cn1 [Compound 486, 5-(6-benzylimidazo [1,2-b]pyridazin-3-yl)pyridin-2-amine] | 3.64
3 | CN(C)CCNC(=O)c1cccc(-c2cnc3ccc(-c4ccoc4)nn23)c1 [Compound 487, N-(2-dimethylamino-ethyl)-3-[6-(3-furyl)imidazo [1,2-b]pyridazin-3-yl]benzamide] | 3.88
4 | CNC(=O)c1cccc(-c2ccc3ncc(-c4ccc(CO)cc4)n3n2)c1 [Compound 488, 3-[3-[4-(hydroxymethyl)phenyl]imidazo [1,2-b]pyridazin-6-yl]-N-methyl-benzamide] | 14.9
5 | CN(C)C(=O)c1ccc(-c2ccnc3[nH]nc(-c4ccsc4)c23)cc1 [Compound 494, N,N-dimethyl-4-[3-(3-thienyl)-1H-pyrazolo[3,4-b]pyridin-4-yl]benzamide] | 11.2
6 | CC(=O)Nc1ccc(-c2ccnc3[nH]nc(C4CC4)c23)cc1 [Compound 495, N-[4-(3-cyclopropyl-1H-pyrazolo[3,4-b]pyridin-4-yl)phenyl] acetamide] | 8.89
7 | Clc1cccc(-c2ccnc3[nH]nc(C4CC4)c23)c1 [Compound 506, 4-(3-chlorophenyl)-3-cyclopropyl-1H-pyrazolo[3,4-b]pyridine] | 30
8 | NC(=O)c1ccc(-c2ccnc3[nH]nc(-c4ccc(Cl)cc4)c23)cc1 [Compound 510, 4-[3-(4-chlorophenyl)-1H-pyrazolo[3,4-b]pyridin-4-yl]benzamide] | 5.71
9 | CC(=O)c1cccc(-c2ccnc3[nH]nc(C4CCNCC4)c23)c1 [Compound 512, 1-[3-[3-(4-piperidyl)-1H-pyrazolo[3,4-b]pyridin-4-yl]phenyl] ethanone] | 19.7
10 | CC(=O)Nc1ccc(-c2ccnc3[nH]nc(-c4ccsc4)c23)cc1 [Compound 513, N-[4-[3-(3-thienyl)-1H-pyrazolo[3,4-b]pyridin-4-yl]phenyl] acetamide] | 4.87
11 | COc1cc(-c2ccnc3[nH]nc(C4CCNCC4)c23)ccc1O [Compound 514, 2-methoxy-4-[3-(4-piperidyl)-1H-pyrazolo[3,4-b]pyridin-4-yl]phenol] | 11.9
12 | COc1cc(-c2n[nH]c3nccc(-c4cccc(NS(C)(=O)=O)c4)c23)cc(OC)c1OC [Compound 515, N-[3-[3-(3,4,5-trimethoxy-phenyl)-1H-pyrazolo[3,4-b]pyridin-4-yl]phenyl] methane-sulfonamide] | 12.8
13 | Oc1cccc(-c2ccnc3[nH]nc(-c4ccc5c(c4)OCO5)c23)c1 [Compound 517, 3-[3-(1,3-benzodioxol-5-yl)-1H-pyrazolo[3,4-b]pyridin-4-yl]phenol] | 6.25
14 | c1cncc(-c2n[nH]c3nccc(-c4ccoc4)c23)c1 [Compound 518, 4-(3-furyl)-3-(3-pyridyl)-1H-pyrazolo[3,4-b]pyridine] | 14.3
15 | COc1cccc(-c2ccnc3[nH]nc(C4CCNCC4)c23)c1 [Compound 520, 4-(3-methoxyphenyl)-3-(4-piperidyl)-1H-pyrazolo[3,4-b]pyridine] | 17.6
16 | OCc1ccc(-c2ccnc3[nH]nc(-c4ccc5c(c4)OCO5)c23)cc1 [Compound 523, [4-[3-(1,3-benzodioxol-5-yl)-1H-pyrazolo[3,4-b]pyridin-4-yl]phenyl] methanol] | 4.64
17 | COc1ccc(F)cc1-c1ccnc2[nH]nc(C3CCNCC3)c12 [Compound 524, 4-(5-fluoro-2-methoxy-phenyl)-3-(4-piperidyl)-1H-pyrazolo[3,4-b]pyridine] | 11.7
18 | OCc1cccc(-c2ccnc3[nH]nc(-c4ccc5c(c4)OCO5)c23)c1 [Compound 527, [3-[3-(1,3-benzodioxol-5-yl)-1H-pyrazolo[3,4-b]pyridin-4-yl]phenyl] methanol] | 3.09
19 | c1coc(-c2ccnc3[nH]nc(C4CC4)c23)c1 [Compound 530, 3-cyclopropyl-4-(2-furyl)-1H-pyrazolo[3,4-b]pyridine] | 12.6

Next, values leading:

Row | IC50 [µM] | Structure (SMILES)
20 | 1.39 | COc1ccccc1-c1n[nH]c2nccc(-c3ccc(N4CCOCC4)cc3)c12 [Compound 489, 4-[4-[3-(2-methoxyphenyl)-1H-pyrazolo[3,4-b]pyridin-4-yl]phenyl] morpholine]
21 | 1.28 | COc1ccccc1-c1n[nH]c2nccc(-c3ccc(F)c(Cl)c3)c12 [Compound 490, 4-(3-chloro-4-fluoro-phenyl)-3-(2-methoxy-phenyl)-1H-pyrazolo[3,4-b]pyridine]
22 | 2.93 | COc1ccc(-c2ccnc3[nH]nc(-c4ccccc4OC)c23)cn1 [Compound 491, 3-(2-methoxyphenyl)-4-(6-methoxy-3-pyridyl)-1H-pyrazolo[3,4-b]pyridine]
23 | 6.43 | COc1ncc(-c2ccnc3[nH]nc(-c4ccccc4OC)c23)cn1 [Compound 492, 3-(2-methoxyphenyl)-4-(2-methoxy-pyrimidin-5-yl)-1H-pyrazolo[3,4-b]pyridine]
24 | 3.86 | CN(C)C(=O)c1ccc(-c2ccnc3[nH]nc(-c4cccc(F)c4)c23)cc1 [Compound 493, 4-[3-(3-fluorophenyl)-1H-pyrazolo[3,4-b]pyridin-4-yl]-N,N-dimethyl-benzamide]
25 | 18 | Nc1cccc(-c2ccnc3[nH]nc(-c4ccncc4)c23)c1 [Compound 496, 3-[3-(4-pyridyl)-1H-pyrazolo[3,4-b]pyridin-4-yl]aniline]
26 | 3.88 | OCc1ccc(-c2ccnc3[nH]nc(-c4cccc(F)c4)c23)cc1 [Compound 497]
27 | 2.67 | COc1ccccc1-c1n[nH]c2nccc(-c3ccsc3)c12 [Compound 498, 3-(2-methoxyphenyl)-4-(3-thienyl)-1H-pyrazolo[3,4-b]pyridine]
28 | 2.02 | COc1cc(-c2n[nH]c3nccc(-c4ccc(NC(C)=O)cc4)c23)cc(OC)c1OC [Compound 499, N-[4-[3-(3,4,5-trimethoxy-phenyl)-1H-pyrazolo[3,4-b]pyridin-4-yl]phenyl] acetamide]
29 | 1.13 | COc1ccccc1-c1n[nH]c2nccc(/C=C/c3ccccc3)c12 [Compound 500, 3-(2-methoxyphenyl)-4-[(E)-styryl]-1H-pyrazolo[3,4-b]pyridine]
30 | 1.35 | COc1ccccc1-c1n[nH]c2nccc(-c3cccc(F)c3)c12 [Compound 501, 4-(3-fluorophenyl)-3-[2-methoxy-phenyl)-1H-pyrazolo[3,4-b]pyridine]
31 | 1.48 | COc1ccccc1-c1n[nH]c2nccc(-c3ccc(C(N)=O)cc3)c12 [Compound 502, 4-[3-(2-methoxyphenyl)-1H-pyrazolo[3,4-b]pyridin-4-yl]benzamide]
32 | 7.11 | OCc1ccc(-c2ccnc3[nH]nc(-c4ccccc4)c23)cc1 [Compound 503, [4-(3-phenyl-1H-pyrazolo[3,4-b]pyridin-4-yl)phenyl] methanol]
33 | 0.852 | c1ccc(-c2n[nH]c3nccc(-c4cn[nH]c4)c23)cc1 [Compound 504, 3-phenyl-4-(1H-pyrazol-4-yl)-1H-pyrazolo[3,4-b]pyridine]
34 | 20.9 | COc1cc(-c2n[nH]c3nccc(-c4ccc(C(C)C)cc4)c23)cc(OC)c1OC [Compound 505, 4-(4-isopropylphenyl)-3-(3,4,5-trimethoxy-phenyl)-1H-pyrazolo[3,4-b]pyridine]
35 | 4.85 | COc1ccccc1-c1n[nH]c2nccc(-c3cccc(C(=O)NCCN(C)C)c3)c12 [Compound 507, N-(2-dimethylamino-ethyl)-3-[3-(2-methoxyphenyl)-1H-pyrazolo[3,4-b]pyridin-4-yl]benzamide]
36 | 1.67 | COc1ccccc1-c1n[nH]c2nccc(-c3cccc(CO)c3)c12 [Compound 508, [3-[3-(2-methoxyphenyl)-1H-pyrazolo[3,4-b]pyridin-4-yl]phenyl] methanol]
37 | 2.05 | NC(=O)c1ccc(-c2ccnc3[nH]nc(-c4cccc(F)c4)c23)cc1 [Compound 509, 4-[3-(3-fluorophenyl)-1H-pyrazolo[3,4-b]pyridin-4-yl]benzamide]
38 | 5.03 | COc1cc(-c2n[nH]c3nccc(-c4cccc(O)c4)c23)cc(OC)c1OC [Compound 511, 3-[3-(3,4,5-trimethoxy-phenyl)-1H-pyrazolo[3,4-b]pyridin-4-yl]phenol]
39 | 4.9 | COc1ccccc1-c1n[nH]c2nccc(-c3ccoc3)c12 [Compound 516, 4-(3-furyl)-3-(2-methoxyphenyl)-1H-pyrazolo[3,4-b]pyridine]
40 | 5.38 | COc1cc(-c2n[nH]c3nccc(-c4ccc(CO)cc4)c23)cc(OC)c1OC [Compound 519, [4-[3-(3,4,5-trimethoxy-phenyl)-1H-pyrazolo[3,4-b]pyridin-4-yl]phenyl] methanol]
41 | 1.58 | COc1ccccc1-c1n[nH]c2nccc(-c3ccc(C#N)cc3)c12 [Compound 521, 4-[3-(2-methoxyphenyl)-1H-pyrazolo[3,4-b]pyridin-4-yl]benzonitrile]
42 | 11.1 | COc1cc(-c2n[nH]c3nccc(-c4ccc(C(=O)N(C)C)cc4)c23)cc(OC)c1OC [Compound 522, N,N-dimethyl-4-[3-(3,4,5-trimethoxy-phenyl)-1H-pyrazolo[3,4-b]pyridin-4-yl]benzamide]
43 | 11.2 | COc1cc(-c2n[nH]c3nccc(-c4ccc(S(C)(=O)=O)cc4)c23)cc(OC)c1OC [Compound 525, 4-(4-methylsulfonyl-phenyl)-3-(3,4,5-trimethoxy-phenyl)-1H-pyrazolo[3,4-b]pyridlne]
44 | 6.5 | OCc1ccc(-c2ccnc3[nH]nc(-c4cccc(Cl)c4)c23)cc1 [Compound 526, [4-[3-(3-chlorophenyl)-1H-pyrazolo[3,4-b]pyridin-4-yl]phenyl] methanol]
45 | 8.63 | c1ccc(-c2n[nH]c3nccc(-c4ccoc4)c23)cc1 [Compound 528, 4-(3-furyl)-3-phenyl-1H-pyrazolo[3,4-b]pyridine]
46 | 16.9 | COc1ccc(-c2ccnc3[nH]nc(-c4cc(OC)c(OC)c(OC)c4)c23)cn1 [Compound 529, 4-(6-methoxy-3-pyridyl)-3-(3,4,5-trimethoxy-phenyl)-1H-pyrazolo[3,4-b]pyridine]
